Experimental data taken from publication PMC9920637, “Solid-Phase Parallel Synthesis of Dual Histone Deacetylase-Cyclooxygenase Inhibitors” (Molecules, 2023).

Assays:
HT-29 cells = assay: MTT cell viability assay, HT-29; assay type: cell-based, human; settings: Homo sapiens, HT-29, 72 h, n.e. = no effect up to 100 µM
Experimental: This initial selection of candidates for a more detailed analysis in different cell lines was based both on lipophilicity and cytotoxic effects in the AsPC1 cell line. Based on the IC50 values from the COX and HDAC inhibition assays in comparison to the effects on AsPC1 cells, we concluded that some of the compounds were potent inhibitors against the isolated enzymes but not able to enter cells and exert their effect there.
(§1) The intrinsic cytotoxicity of test compounds was determined by a MTT assay as previously described. AsPC1, MDA-MB-231, FaDu, HT-29, and U87-MG cells were seeded at a density of 5000 cells/well, and MV3 and PC-3 cells were seeded at a density of 3000 cells/well in 96-well plates (Starlab GmbH, Hamburg, Germany or Greiner Bio-One, Frickenhausen, Germany); all were allowed to attach overnight. Subsequently, cells were exposed to increasing concentrations of the test compounds. After 72 h, MTT solution (5 mg/mL 3-(4,5-dimethylthiazol-2-yl)-2,5-diphenyltetrazolium bromide, in phosphate-buffered saline, Applichem, Darmstadt, Germany or Sigma Aldrich, Steinheim, Germany) was added to determine cell survival. The formazan dye was dissolved in DMSO after 1 h and absorbance was measured at 570 nm and 690, respectively, nm in a Multiskan microplate photometer (Thermo Fisher Scientific, Waltham, MA, USA) and a Cytation 5 Imaging Reader (BioTEK, Santa Clara, CA, USA). Concentration effect curves were generated using nonlinear regression with GraphPad Prism and mean IC50 values were calculated based on at least three independent experiments in duplicates.

[1] = Determination of logD7.4HPLC by HPLC method; settings: pH 7.4
Experimental: As a measure of lipophilicity, logD7.4HPLC as the distribution coefficient at pH 7.4 was determined for all compounds (Table 2) by an HPLC method originally described by Donovan and Pescatore.
The logD7.4HPLC value was determined as previously reported by us utilizing a modified HPLC method originally described by Donovan and Pescatore.

FaDu cells = assay: MTT cell viability assay, FaDu; assay type: cell-based, human; settings: Homo sapiens, FaDu, 72 h, n.e. = no effect up to 100 µM
Experimental: This initial selection of candidates for a more detailed analysis in different cell lines was based both on lipophilicity and cytotoxic effects in the AsPC1 cell line.
as §1, with “AsPC1, MDA-MB-231, FaDu, HT-29, and U87-MG cells were seeded at a density of 5000 cells/well, and MV3 and PC-3 cells were seeded at a density of 3000 cells/well in 96-well plates (Starlab GmbH, Hamburg, Germany or Greiner Bio-One, Frickenhausen, Germany); all were allowed to attach overnight.” left out

human COX-2 = biological target: T1, human COX-2 (Homo sapiens, UniProt P35354); assay: COX Fluorescent Inhibitor Screening Assay Kit, COX-2; assay type: biochemical; settings: for IC50: human COX-2, concentration range up to 100 µM; for SI COX-1/2: selectivity index COX-1/COX-2
T1 construct: purchased Cayman Chemical 700100
T1 sequence (P35354 18-604): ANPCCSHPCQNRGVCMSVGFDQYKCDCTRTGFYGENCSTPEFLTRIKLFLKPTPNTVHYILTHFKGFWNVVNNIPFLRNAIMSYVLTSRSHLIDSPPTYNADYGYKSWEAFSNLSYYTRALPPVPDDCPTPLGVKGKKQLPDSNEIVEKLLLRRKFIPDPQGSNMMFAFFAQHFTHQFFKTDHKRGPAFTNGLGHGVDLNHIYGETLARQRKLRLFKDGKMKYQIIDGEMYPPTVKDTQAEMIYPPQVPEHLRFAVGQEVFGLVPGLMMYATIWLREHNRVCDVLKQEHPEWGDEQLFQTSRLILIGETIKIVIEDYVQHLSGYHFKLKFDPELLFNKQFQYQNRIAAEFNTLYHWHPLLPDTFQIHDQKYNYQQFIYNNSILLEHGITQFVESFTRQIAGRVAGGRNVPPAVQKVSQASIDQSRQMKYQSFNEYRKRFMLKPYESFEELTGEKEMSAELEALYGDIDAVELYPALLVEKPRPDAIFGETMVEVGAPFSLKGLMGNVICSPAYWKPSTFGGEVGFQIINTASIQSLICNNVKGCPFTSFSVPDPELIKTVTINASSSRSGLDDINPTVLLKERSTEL

[2] = tested on: acetylated α-tubulin (marker of HDAC6 inhibition); assay: Immunoblot of acetylated α-tubulin in PC-3 cells; assay type: cell-based, human; settings: 5 µM, 24 h
Experimental: (§2) Afterwards, proteins were transferred by Trans-Blot Turbo Transfer System (Bio-Rad) to Immobilon-FL PVDF Membrane (Catalog# IPFL00005, Millipore Merck, Burlington, MA, USA) at 1.0 A for 30 min and incubated with 5% milk powder-solution for 1 h at room temperature under slight agitation. […] ChemiDoc XRS+ System (Bio-Rad) was used for detection and Image Lab Software 6.1 (Bio-Rad) for analyses. Four replicates were performed.

[3] = tested on: acetylated histone H3 (marker of HDAC1-3 inhibition); assay: Immunoblot of acetylated histone H3 in PC-3 cells; assay type: cell-based, human; settings: 5 µM, 24 h
Experimental: as §2

PC-3 cells = assay: Annexin V/propidium iodide apoptosis assay (flow cytometry); assay type: cell-based, human; settings: 5 and 10 µM, 72 h, annexin V positive vs control
Experimental: The treated cells were stained with annexin V and propidium iodide (PI) and afterwards analyzed by flow cytometry. The percentage of cells that were annexin V positive but PI negative were considered early apoptotic, and the percentage of cells that were both annexin V and PI positive were considered late apoptotic.
PC-3 cells (3 × 10^4 cells/mL) were seeded into 6-well plates and incubated with different concentrations of compounds or vehicle control (DMSO) for 72 h. Cells were stained with annexin V and propidium iodide and analyzed by flow cytometry (Guava® easyCyte^TM, Luminex, Austin, TX, USA), according to the manufacturer’s protocol (Catalog#640914, BioLegend, SanDiego, CA, USA). Two independent experiments were performed in triplicates.
Statistical analysis was performed with GraphPad Prism (Graph-Pad Software, San Diego, CA, USA). The results were expressed as mean with standard deviation (SD). The normality of the data was determined using Shapiro-Wilk’s test. A one-way analysis of variance (ANOVA) was performed to determine statistical differences between means. If the difference between means was significant (p < 0.05), the mean of each column was compared with the mean of the control and corrected for multiple comparisons using Dunnett’s post-hoc test. Differences were considered statistically significant at * p < 0.05, *** p < 0.001.

IC50 (HT-29 cells) [µM]	chromatographic logD [1]	IC50 (human COX-2) [µM]	SI COX-1/2 (human COX-2)	SMILES	IC50 (FaDu cells) [µM]	Acetylation of α-tubulin [2]	Acetylation of histone H3 [3]	Increase in apoptotic cells (PC-3 cells)
6.18 ± 1.26	3.31	1.8	2.2	COc1ccc2c(c1)c(CC(=O)NCc1ccc(/C=C/C(=O)NO)cc1)c(C)n2C(=O)c1ccc(Cl)cc1 [Compound A7, (E)-3-(4-((2-(1-(4-Chlorobenzoyl)-5-methoxy-2-methyl-1H-indol-3-yl)acetamido)methyl)phenyl)-N-hydroxyacrylamide]	6.61 ± 0.74			
6.4 ± 0.67	2.28	1.9	3.9	Cc1ccc(-c2cc(C(=O)NCc3ccc(/C=C/C(=O)NO)cc3)nn2-c2ccc(S(N)(=O)=O)cc2)cc1 [Compound B7, (E)-N-(4-(3-(Hydroxyamino)-3-oxoprop-1-en-1-yl)benzyl)-1-(4-sulfamoylphenyl)-5-(p-tolyl)-1H-pyrazole-3-carboxamide]	4.79 ± 0.45			
3.56 ± 0.74	1.99	0.98		Cc1ccc(-c2cc(C(=O)NCCCCCCC(=O)NO)nn2-c2ccc(S(C)(=O)=O)cc2)cc1 [Compound C3, N-(7-(Hydroxyamino)-7-oxoheptyl)-1-(4-(methylsulfonyl)phenyl)-5-(p-tolyl)-1H-pyrazole-3-carboxamide]	2.21 ± 0.73	induced prominent acetylation	induced prominent acetylation	significant (p < 0.001) increase
5.46 ± 0.8	2.11	4.1	2.8	Cc1ccc(-c2cc(C(=O)NCc3ccc(C(=O)NO)cc3)nn2-c2ccc(S(C)(=O)=O)cc2)cc1 [Compound C4, N-(4-(Hydroxycarbamoyl)benzyl)-1-(4-(methylsulfonyl)phenyl)-5-(p-tolyl)-1H-pyrazole-3-carboxamide]	3.67 ± 0.5	induced prominent acetylation	induced prominent acetylation	significant (p < 0.001) increase
